Measurements as given in ChEMBL document CHEMBL2380302, “Synthesis of 3-O-propargylated betulinic acid and its 1,2,3-triazoles as potential apoptotic agents” (Eur J Med Chem, 2013).

How the values were obtained:
HL-60 [1] = assay: Cytotoxicity against human HL60 cells after 48 hrs by SRB assay; assay type: functional, cell-based; settings: HL-60, 48 h
HCT-15 [2] = assay: Cytotoxicity against human HCT15 cells after 48 hrs by SRB assay; assay type: functional, cell-based; settings: HCT-15, 48 h
THP-1 [3] = assay: Cytotoxicity against human THP1 cells after 48 hrs by SRB assay; assay type: functional, cell-based; settings: THP-1, 48 h
PC-3 [4] = assay: Cytotoxicity against human PC3 cells at 30 uM after 48 hrs by SRB assay; assay type: functional; settings: PC-3, 48 h, read-out: GI
HL-60 [5] = assay: Cytotoxicity against human HL60 cells at 50 uM after 48 hrs by SRB assay; assay type: functional; settings: HL-60, 48 h, read-out: GI
THP-1 [6] = assay: Cytotoxicity against human THP1 cells at 10 uM after 48 hrs by SRB assay; assay type: functional; settings: THP-1, 48 h, read-out: GI
A549 [7] = assay: Cytotoxicity against human A549 cells at 50 uM after 48 hrs by SRB assay; assay type: functional; settings: A549, 48 h, read-out: GI
DU-145 [8] = assay: Cytotoxicity against human DU145 cells at 30 uM after 48 hrs by SRB assay; assay type: functional; settings: DU-145, 48 h, read-out: GI
HL-60 [9] = assay: Cytotoxicity against human HL60 cells at 10 uM after 48 hrs by SRB assay; assay type: functional; settings: HL-60, 48 h, read-out: GI
HL-60 [10] = assay: Cytotoxicity against human HL60 cells at 30 uM after 48 hrs by SRB assay; assay type: functional; settings: HL-60, 48 h, read-out: GI
DU-145 [11] = assay: Cytotoxicity against human DU145 cells at 10 uM after 48 hrs by SRB assay; assay type: functional; settings: DU-145, 48 h, read-out: GI
A549 [12] = assay: Cytotoxicity against human A549 cells at 30 uM after 48 hrs by SRB assay; assay type: functional; settings: A549, 48 h, read-out: GI
SF-295 [13] = assay: Cytotoxicity against human SF295 cells at 30 uM after 48 hrs by SRB assay; assay type: functional; settings: SF-295, 48 h, read-out: GI
HCT-15 [14] = assay: Cytotoxicity against human HCT15 cells at 50 uM after 48 hrs by SRB assay; assay type: functional; settings: HCT-15, 48 h, read-out: GI
HEp-2 [15] = assay: Cytotoxicity against human Hep2 cells at 30 uM after 48 hrs by SRB assay; assay type: functional; settings: HEp-2, 48 h, read-out: GI
HCT-15 [16] = assay: Cytotoxicity against human HCT15 cells at 30 uM after 48 hrs by SRB assay; assay type: functional; settings: HCT-15, 48 h, read-out: GI
MCF7 [17] = assay: Cytotoxicity against human MCF7 cells at 10 uM after 48 hrs by SRB assay; assay type: functional; settings: MCF7, 48 h, read-out: GI
MCF7 [18] = assay: Cytotoxicity against human MCF7 cells at 50 uM after 48 hrs by SRB assay; assay type: functional; settings: MCF7, 48 h, read-out: GI
A549 [19] = assay: Cytotoxicity against human A549 cells at 10 uM after 48 hrs by SRB assay; assay type: functional; settings: A549, 48 h, read-out: GI
HEp-2 [20] = assay: Cytotoxicity against human Hep2 cells after 48 hrs by SRB assay; assay type: functional, cell-based; settings: HEp-2, 48 h
SF-295 [21] = assay: Cytotoxicity against human SF295 cells at 10 uM after 48 hrs by SRB assay; assay type: functional; settings: SF-295, 48 h, read-out: GI
PC-3 [22] = assay: Cytotoxicity against human PC3 cells at 10 uM after 48 hrs by SRB assay; assay type: functional; settings: PC-3, 48 h, read-out: GI
MCF7 [23] = assay: Cytotoxicity against human MCF7 cells at 30 uM after 48 hrs by SRB assay; assay type: functional; settings: MCF7, 48 h, read-out: GI
DU-145 [24] = assay: Cytotoxicity against human DU145 cells after 48 hrs by SRB assay; assay type: functional, cell-based; settings: DU-145, 48 h
DU-145 [25] = assay: Cytotoxicity against human DU145 cells at 50 uM after 48 hrs by SRB assay; assay type: functional; settings: DU-145, 48 h, read-out: GI
MCF7 [26] = assay: Cytotoxicity against human MCF7 cells after 48 hrs by SRB assay; assay type: functional, cell-based; settings: MCF7, 48 h
HCT-15 [27] = assay: Cytotoxicity against human HCT15 cells at 10 uM after 48 hrs by SRB assay; assay type: functional; settings: HCT-15, 48 h, read-out: GI
THP-1 [28] = assay: Cytotoxicity against human THP1 cells at 30 uM after 48 hrs by SRB assay; assay type: functional; settings: THP-1, 48 h, read-out: GI
THP-1 [29] = assay: Cytotoxicity against human THP1 cells at 50 uM after 48 hrs by SRB assay; assay type: functional; settings: THP-1, 48 h, read-out: GI
HEp-2 [30] = assay: Cytotoxicity against human Hep2 cells at 10 uM after 48 hrs by SRB assay; assay type: functional; settings: HEp-2, 48 h, read-out: GI
SF-295 [31] = assay: Cytotoxicity against human SF295 cells after 48 hrs by SRB assay; assay type: functional, cell-based; settings: SF-295, 48 h
SF-295 [32] = assay: Cytotoxicity against human SF295 cells at 50 uM after 48 hrs by SRB assay; assay type: functional; settings: SF-295, 48 h, read-out: GI
PC-3 [33] = assay: Cytotoxicity against human PC3 cells after 48 hrs by SRB assay; assay type: functional, cell-based; settings: PC-3, 48 h
PC-3 [34] = assay: Cytotoxicity against human PC3 cells at 50 uM after 48 hrs by SRB assay; assay type: functional; settings: PC-3, 48 h, read-out: GI
A549 [35] = assay: Cytotoxicity against human A549 cells after 48 hrs by SRB assay; assay type: functional, cell-based; settings: A549, 48 h
HEp-2 [36] = assay: Cytotoxicity against human Hep2 cells at 50 uM after 48 hrs by SRB assay; assay type: functional; settings: HEp-2, 48 h, read-out: GI

| Structure (SMILES) | IC50 (HL-60 [1]) | IC50 (HCT-15 [2]) | IC50 (THP-1 [3]) | inhibition of growth at 30 µM (PC-3 [4]) | inhibition of growth at 50 µM (HL-60 [5]) | inhibition of growth at 10 µM (THP-1 [6]) | inhibition of growth at 50 µM (A549 [7]) | inhibition of growth at 30 µM (DU-145 [8]) | inhibition of growth at 10 µM (HL-60 [9]) | inhibition of growth at 30 µM (HL-60 [10]) | inhibition of growth at 10 µM (DU-145 [11]) | inhibition of growth at 30 µM (A549 [12]) | inhibition of growth at 30 µM (SF-295 [13]) | inhibition of growth at 50 µM (HCT-15 [14]) | inhibition of growth at 30 µM (HEp-2 [15]) | inhibition of growth at 30 µM (HCT-15 [16]) | inhibition of growth at 10 µM (MCF7 [17]) | inhibition of growth at 50 µM (MCF7 [18]) | inhibition of growth at 10 µM (A549 [19]) | IC50 (HEp-2 [20]) | further results |
| --- | --- | --- | --- | --- | --- | --- | --- | --- | --- | --- | --- | --- | --- | --- | --- | --- | --- | --- | --- | --- | --- |
| C=C(C)[C@@H]1CC[C@]2(C(=O)O)CC[C@]3(C)[C@H](CC[C@@H]4[C@@]5(C)CC[C@H](OCc6cn(-c7ccc(C(=O)c8ccccc8)cc7)nn6)C(C)(C)[C@@H]5CC[C@]43C)[C@@H]12 | 40 µM | > 50 µM | 44 µM | 4% | 94% | 3% | 58% | 9% | 6% | 30% | 6% | 37% | 19% | 46% | 26% | 41% | 29% | 44% | 32% | > 50 µM | inhibition of growth at 10 µM (SF-295 [21]): 8%; inhibition of growth at 10 µM (PC-3 [22]): 6%; inhibition of growth at 30 µM (MCF7 [23]): 25%; IC50 (DU-145 [24]): 50 µM; inhibition of growth at 50 µM (DU-145 [25]): 50%; IC50 (MCF7 [26]): > 50 µM; inhibition of growth at 10 µM (HCT-15 [27]): 43%; inhibition of growth at 30 µM (THP-1 [28]): 24%; inhibition of growth at 50 µM (THP-1 [29]): 91%; inhibition of growth at 10 µM (HEp-2 [30]): 25%; IC50 (SF-295 [31]): > 50 µM; inhibition of growth at 50 µM (SF-295 [32]): 12%; IC50 (PC-3 [33]): > 50 µM; inhibition of growth at 50 µM (PC-3 [34]): 3%; IC50 (A549 [35]): 36 µM; inhibition of growth at 50 µM (HEp-2 [36]): 25% |
| C=C(C)[C@@H]1CC[C@]2(C(=O)O)CC[C@]3(C)[C@H](CC[C@@H]4[C@@]5(C)CC[C@H](OCc6cn(C7O[C@H](COC(C)=O)[C@@H](OC(C)=O)[C@H](OC(C)=O)[C@H]7OC(C)=O)nn6)C(C)(C)[C@@H]5CC[C@]43C)[C@@H]12 (some centres undefined) | 8 µM | 27 µM | 20 µM | 7% | 80% | 44% | 43% | 4% | 52% | 63% | 7% | 20% | 5% | 62% | 39% | 54% | 8% | 32% | 5% | > 50 µM | inhibition of growth at 10 µM (SF-295 [21]): 8%; inhibition of growth at 10 µM (PC-3 [22]): 8%; inhibition of growth at 30 µM (MCF7 [23]): 15%; IC50 (DU-145 [24]): > 50 µM; inhibition of growth at 50 µM (DU-145 [25]): 8%; IC50 (MCF7 [26]): > 50 µM; inhibition of growth at 10 µM (HCT-15 [27]): 39%; inhibition of growth at 30 µM (THP-1 [28]): 58%; inhibition of growth at 50 µM (THP-1 [29]): 76%; inhibition of growth at 10 µM (HEp-2 [30]): 24%; IC50 (SF-295 [31]): > 50 µM; inhibition of growth at 50 µM (SF-295 [32]): 5%; IC50 (PC-3 [33]): > 50 µM; inhibition of growth at 50 µM (PC-3 [34]): 11%; IC50 (A549 [35]): > 50 µM; inhibition of growth at 50 µM (HEp-2 [36]): 44% |
| C=C(C)[C@@H]1CC[C@]2(C(=O)O)CC[C@]3(C)[C@H](CC[C@@H]4[C@@]5(C)CC[C@H](OCc6cn(-c7cccc(CO)c7)nn6)C(C)(C)[C@@H]5CC[C@]43C)[C@@H]12 | 7 µM | 25 µM | 10 µM | 29% | 95% | 50% | 67% | 52% | 53% | 93% | 43% | 45% | 37% | 71% | 74% | 70% | 36% | 75% | 43% | 8 µM | inhibition of growth at 10 µM (SF-295 [21]): 27%; inhibition of growth at 10 µM (PC-3 [22]): 4%; inhibition of growth at 30 µM (MCF7 [23]): 71%; IC50 (DU-145 [24]): 23 µM; inhibition of growth at 50 µM (DU-145 [25]): 65%; IC50 (MCF7 [26]): 17 µM; inhibition of growth at 10 µM (HCT-15 [27]): 11%; inhibition of growth at 30 µM (THP-1 [28]): 91%; inhibition of growth at 50 µM (THP-1 [29]): 93%; inhibition of growth at 10 µM (HEp-2 [30]): 51%; IC50 (SF-295 [31]): 53 µM; inhibition of growth at 50 µM (SF-295 [32]): 47%; IC50 (PC-3 [33]): 50 µM; inhibition of growth at 50 µM (PC-3 [34]): 49%; IC50 (A549 [35]): 32 µM; inhibition of growth at 50 µM (HEp-2 [36]): 78% |
| C=C(C)[C@@H]1CC[C@]2(C(=O)O)CC[C@]3(C)[C@H](CC[C@@H]4[C@@]5(C)CC[C@H](O)C(C)(C)[C@@H]5CC[C@]43C)[C@@H]12 [BETULINIC ACID] | 17 µM | 12 µM | 20 µM | 29% | 98% | 30% | 74% | 70% | 35% | 73% | 12% | 48% | 88% | 94% | 66% | 80% | 7% | 80% | 20% | 16 µM | inhibition of growth at 10 µM (SF-295 [21]): 11%; inhibition of growth at 10 µM (PC-3 [22]): 8%; inhibition of growth at 30 µM (MCF7 [23]): 36%; IC50 (DU-145 [24]): 22 µM; inhibition of growth at 50 µM (DU-145 [25]): 84%; IC50 (MCF7 [26]): 37 µM; inhibition of growth at 10 µM (HCT-15 [27]): 45%; inhibition of growth at 30 µM (THP-1 [28]): 69%; inhibition of growth at 50 µM (THP-1 [29]): 99%; inhibition of growth at 10 µM (HEp-2 [30]): 41%; IC50 (SF-295 [31]): 22 µM; inhibition of growth at 50 µM (SF-295 [32]): 99%; IC50 (PC-3 [33]): 37 µM; inhibition of growth at 50 µM (PC-3 [34]): 94%; IC50 (A549 [35]): 31 µM; inhibition of growth at 50 µM (HEp-2 [36]): 78% |
